{"source": "patent US20250099517A1", "about": "“Use of Lactobacillus reuteri Y7 strain for prevention or treatment of ocular diseases” (Taipei Medical University, priority 2023, published 2025)", "type_in_all_cases": "in vivo, C57BL/6 mice", "key": {"[1]": {"test_system": "Occludin, Claudin-1, ZO-1 gene expression", "experiment": "q-PCR of tight junction gene expression in colons", "conditions": "for gene expressions of ZO-1: p<0.05", "method": "(§1) The C57BL/6 mice, which weighed between 23 and 25 g, were divided into seven groups randomly. In each group, the six mice induced by blue light successfully were incorporated in experiments. The samples dissolved in deuterium-depleted water (DDW) were fed to mice through oral tubes once a day. The groups were named and introduced as follows: • (1) Solvent not classified group (NC): The mice were fed with 0.2 ml deuterium-depleted water (DDW) through tubes; • (2) Negative control group (Blue light (BL)): The mice were fed with 0.2 ml deuterium-depleted water (DDW) through tubes and exposed to blue light; • (3) Low-dosage Y7 probiotics group […]): The mice were fed with low-dosage Y7 probiotics (probiotic counts of 1.0×10^8 CFU/ml dissolved in 0.2 ml DDW per day) and exposed to blue light; • (4) High-dosage Y7 probiotics group […]): The mice were fed with high-dosage Y7 probiotics (probiotic counts of 1.0×10^9 CFU/ml dissolved in 0.2 ml DDW per day) and exposed to blue light; • (5) Positive control group (lutein (LU)): The mice were fed with lutein and exposed to blue light. The recommended human dosage of lutein is 30 mg. The mouse cage (48×25×20 cm) placed inside a stainless ventilated box was equipped with blue light boards as blue light sources around and above. In the experiment of animals exposed to blue light, six-week-old mice staying in the mouse cage were fed with drinking water as well as fodders and exposed to 400 Lux blue light illumination under the light-dark cycle of 12-hour light and 12-hour dark. The experiment was aimed at causing mice' late dry macular disease induced by chronic light injuries for simulating a human being's macular disease after long-term exposure to short-wavelength blue light from 3C products in daily life. The eyes of a mouse sacrificed were collected for the following purposes. RNAs extracted with Trizol were reverse-transcribed to cDNAs. Then, the real-time quantitative polymerase chain reaction was enabled to detect gene expressions related to inflammatory hormones and apoptosis such as TNF-α, IL-1B, IL-6, Bax, Bcl-2, Caspase1, Caspase3 and NLRP3 for comparisons with the endogenous level of β-actin, GAPDH or 18S rRNA. [table] The gene expressions related to tight junctions of mice' eyes, buccal mucosas and colons after induction of blue light were analyzed through q-PCR and shown in FIG. 10a, FIG. 10d and FIG. 10g for Occludin, FIG. 10b, FIG. 10e and FIG. 10h for Claudin-1 and FIG. 10c, FIG. 10f and FIG. 10i for ZO-1, respectively."}, "[2]": {"test_system": "Occludin, Claudin-1, ZO-1 gene expression", "experiment": "q-PCR of tight junction gene expression in eyes", "conditions": "for gene expressions of Occludin compared with the LU group: p<0.05", "method": "as §1"}, "[3]": {"test_system": "MCP-1, IL-18, NLRP3, NF-KB p65, Caspase1 gene expression", "experiment": "q-PCR of inflammation-related gene expression in eyes", "conditions": "for gene expression of MCP-1 compared with the BL group / gene expression of NF-KB p65 compared with the BL group: p<0.05; for gene expression of Caspase1 / gene expression of IL-18 / gene expression of NLRP3: versus increase in BL group", "method": "as §1, with “a mouse's ocular inflammation, for example, MCP-1 (FIG. 8a), IL-18 (FIG. 8b), NLRP3 (FIG. 8c), NF-KB p65 (FIG. 8d), Caspase1 (FIG. 8e), TNF-α (FIG. 8f), IL-6 (FIG. 8g)” for “tight junctions of mice' eyes, buccal mucosas”, “IL-1β (FIG. 8h),” for “colons after induction of blue light”, “analyzed” for “analyzed through q-PCR and shown”, “the experiment. […] In summary, the intervention of Y7 probiotics relieved ocular inflammation attributed to blue light.” for “FIG. 10a, FIG. 10d and FIG. 10g for Occludin, FIG. 10b, FIG. 10e and FIG. 10h for Claudin-1 and FIG. 10c, FIG. 10f and FIG. 10i for ZO-1, respectively.”"}}, "data": [{"substance": "Lactobacillus reuteri Y7 [Y7 probiotics]", "values": [{"measurement": "gene expressions of Claudin-1", "setting": "[1]; Y7H high-dosage group", "result": "ascending trend"}, {"measurement": "gene expressions of Occludin", "setting": "[1]; Y7H high-dosage group", "result": "ascending trend"}, {"measurement": "gene expressions of ZO-1", "setting": "[1]; Y7H high-dosage group", "result": "increased significantly"}, {"measurement": "gene expressions of Claudin-1", "setting": "[1]; Y7L low-dosage group", "result": "ascending trend"}, {"measurement": "gene expressions of Occludin", "setting": "[1]; Y7L low-dosage group", "result": "ascending trend"}, {"measurement": "gene expressions of ZO-1", "setting": "[1]; Y7L low-dosage group", "result": "increased significantly"}, {"measurement": "gene expressions of Claudin-1 compared with the LU group", "setting": "[2]; Y7H high-dosage group", "result": "descending trend"}, {"measurement": "gene expressions of ZO-1 compared with the LU group", "setting": "[2]; Y7H high-dosage group", "result": "descending trend"}, {"measurement": "gene expressions of Occludin compared with the LU group", "setting": "[2]; Y7H high-dosage group", "result": "decreased significantly"}, {"measurement": "gene expressions of Claudin-1 compared with the LU group", "setting": "[2]; Y7L low-dosage group", "result": "descending trend"}, {"measurement": "gene expressions of ZO-1 compared with the LU group", "setting": "[2]; Y7L low-dosage group", "result": "descending trend"}, {"measurement": "gene expressions of Occludin compared with the LU group", "setting": "[2]; Y7L low-dosage group", "result": "decreased significantly"}, {"measurement": "gene expression of MCP-1 compared with the BL group", "setting": "[3]; Y7H high-dosage group", "result": "reduced significantly"}, {"measurement": "gene expression of NF-KB p65 compared with the BL group", "setting": "[3]; Y7H high-dosage group", "result": "reduced significantly"}, {"measurement": "gene expression of Caspase1", "setting": "[3]; Y7H high-dosage group", "result": "decreased"}, {"measurement": "gene expression of IL-18", "setting": "[3]; Y7H high-dosage group", "result": "decreased"}, {"measurement": "gene expression of NLRP3", "setting": "[3]; Y7H high-dosage group", "result": "decreased"}, {"measurement": "gene expression of MCP-1 compared with the BL group", "setting": "[3]; Y7L low-dosage group", "result": "reduced significantly"}, {"measurement": "gene expression of NF-KB p65 compared with the BL group", "setting": "[3]; Y7L low-dosage group", "result": "reduced significantly"}, {"measurement": "gene expression of Caspase1", "setting": "[3]; Y7L low-dosage group", "result": "decreased"}, {"measurement": "gene expression of IL-18", "setting": "[3]; Y7L low-dosage group", "result": "decreased"}, {"measurement": "gene expression of NLRP3", "setting": "[3]; Y7L low-dosage group", "result": "decreased"}]}]}
